Data on twelve compounds can be found in the supplement of paper PMC7600603.

Test [1] deals with DLD1 NRF2-WT. The note with it: 72 h; CellTiter-Glo viability. The gist of the method: (§1)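 Isogenic DLD1 colorectal cancer cells, either NRF2 wild-type or CRISPR gain-of-function, were grown in DMEM with 10% FBS. They were exposed in 384-well plates to library compounds at 5 concentrations spanning a 10,000-fold range. After 72 h, viability was read by CellTiter-Glo on a Pherastar FS reader and normalised to vehicle wells and 100-μM positive-control wells. EC50 and drug sensitivity score (a normalised area under the curve) came from four-parameter logistic dose-response fits.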
In general terms: Cellular ATP, detected with luciferase, serves as a proxy for viable cell number.

Test [2] concerns DLD1 NRF2-GOF. Kind of test: TC50 cytotoxicity; higher = less toxic. The note with it: 72 h; CellTox Green cytotoxicity. The gist of the method:
(§2)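 After growth in DMEM with 10% FBS, NRF2 wild-type and CRISPR-edited isogenic DLD1 cells were seeded in 384-well plates and given library compounds at 5 concentrations across a 10,000-fold range. Fluorescence from CellTox Green was taken on a Pherastar FS reader after 72 h and normalised against vehicle wells and 100-μM positive-control wells. From logistic dose-response fits of cytotoxicity came the TC50 and the drug sensitivity score, a normalised area under the curve.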

For test [3], the system named is DLD1 NRF2-WT. Kind of test: TC50 cytotoxicity; higher = less toxic. The note with it: 72 h; CellTox Green cytotoxicity. In a few lines:
as §2

Test [4] has as its system DLD1 NRF2-GOF. Kind of test: drug sensitivity score (DSS) cytotoxicity (DSS score); higher = more toxic; extreme values may be limits of the assay. The note with it: 72 h; CellTox Green cytotoxicity. The gist of the method: as §2
Test [5] concerns DLD1 NRF2-WT. Described as above. The conditions noted are these: 72 h; CellTox Green cytotoxicity. In a few lines: as §2
Test [6] concerns DLD1 NRF2-GOF. Kind of test: drug sensitivity score (DSS) viability (DSS score); higher = more sensitive; extreme values may be limits of the assay. The note with it: 72 h; CellTiter-Glo viability. In a few lines: as §1
In test [7] the test system is DLD1 NRF2-WT. The description is as above. The note with it: 72 h; CellTiter-Glo viability. The gist of the method:
as §1

Each structure is given as a SMILES string. Some results are limits rather than exact numbers.

`Cc1nc2cccc(N)c2c(=O)n1C1CCC(=O)NC1=O` (centres undefined) [CC122] yielded an EC50 viability in test [1] of over 10000 nM. Also, the TC50 cytotoxicity in test [2] and in test [3] was over 10000 nM throughout. Further, the drug sensitivity score was 0 in test [4], 0 in test [5], 2.7 in test [6] and 3.2 in test [7].
`CCCCCCCCCCCCCCCCCCOP(=O)([O-])OC1CC[N+](C)(C)CC1` [Perifosine] displayed an EC50 viability in test [1] of over 2500 nM. The TC50 cytotoxicity in test [2] and in test [3] was over 2500 nM throughout. Also, the drug sensitivity score in test [4] was found to be 0.6; in test [5], 0.9; in test [7], 0.3.
The compound `O=C(CCNC(=O)c1ccc(OC(F)(F)F)cc1)N[C@@H]1CCCc2ccccc21` [ML390] came in with an EC50 viability in test [1] of over 50000 nM. Also, the TC50 cytotoxicity in test [2] and in test [3] was over 50000 nM throughout. For the same compound, the results for the drug sensitivity score in test [4], in test [5] and in test [7] were 0, 0 and 1.9, respectively.
Regarding `C[C@H]1C[C@@H](n2c(Nc3ccc(OC(F)(F)F)cc3)nc3cc(CCC(=O)O)ccc32)CC(C)(C)C1`, the EC50 viability in test [1] is over 10000 nM. For the same compound, the TC50 cytotoxicity in test [2] and in test [3] was over 10000 nM in each case. The drug sensitivity score is 0 in test [4], 0 in test [5] and 0.3 in test [7].
The compound `CC(C)C[C@H](NC(=O)[C@H](Cc1ccccc1)NC(=O)c1cnccn1)B(O)O` [Bortezomib] yielded an EC50 viability in test [1] of 5.8 nM. Further, the TC50 cytotoxicity in test [2] amounted to 11.7 nM; in test [3], 5.7 nM. Also, the figures for the drug sensitivity score in test [4], in test [5] and in test [7] were 23.1, 27.2 and 27.1, respectively.
In turn, `COc1c(C)cnc(Cn2cnc3c(Cl)nc(N)nc32)c1C` [BIIB021] yielded an EC50 viability in test [1] of 149 nM. Also, the TC50 cytotoxicity in test [2] and in test [3] was over 10000 nM throughout. Also, the drug sensitivity score in test [4] was 0; in test [5] it was 0; in test [7], 20.6.
In test [1], `C=C1C[C@@H]2CC[C@@]34C[C@H]5O[C@H]6[C@@H](O3)[C@H]3O[C@H](CC[C@@H]3O[C@H]6[C@H]5O4)CC(=O)C[C@@H]3[C@@H](OC)[C@@H](C[C@H](O)CN)O[C@H]3C[C@H]3O[C@@H](CC[C@@H]1O2)C[C@@H](C)C3=C` [Eribulin] had an EC50 viability of 5.1 nM. In addition, the TC50 cytotoxicity in test [2] and in test [3] was over 1000 nM throughout. The drug sensitivity score in test [4] was 4.4; in test [5], 3.3; in test [7] it was 22.6.
Compound `CC(=O)OC[C@H]1O[C@@H]([S-])[C@H](OC(C)=O)[C@@H](OC(C)=O)[C@@H]1OC(C)=O.CCP(CC)CC.[Au+]` [Auranofin] returned an EC50 viability in test [1] of 622 nM. Also, the values for the TC50 cytotoxicity in test [2] and in test [3] were over 2500 nM and 818 nM, respectively. Moreover, the drug sensitivity score amounted to 0 in test [4], 2.3 in test [5] and 5.5 in test [7].
For the compound `CONC(=O)c1ccccc1Nc1cc(Nc2cc(C)nn2C(C)C)ncc1Cl`, the TC50 cytotoxicity in test [2] and in test [3] was over 1000 nM in each case. Further, the values for the drug sensitivity score in test [4], in test [5] and in test [6] were 0, 0 and 1.6, respectively.
On to `COc1ccc(-c2nc(N3CCOCC3)c3sc(CN(C)c4ncc(C(=O)NO)cn4)cc3n2)cn1` [CUDC-907], for which the EC50 viability in test [1] came to 33.4 nM. In addition, the values for the TC50 cytotoxicity in test [2] and in test [3] were 509 nM and 105 nM, respectively. The drug sensitivity score in test [4] amounted to 6.9; in test [5] it was 14.6; in test [7], 29.8.
For `C[C@@H]1CN(CC(=O)Nc2ccc3c(c2)Cc2cccc(-c4cc(=O)cc(N5CCOCC5)o4)c2S3)C[C@H](C)O1`, the EC50 viability in test [1] was over 25000 nM. The TC50 cytotoxicity in test [2] and in test [3] was over 25000 nM in each case. Besides, the drug sensitivity score in test [4], in test [5] and in test [7] was 0 in each case.
As for `Clc1ccccc1C(c1ccccc1)(c1ccccc1)n1cccn1` [TRAM-34], in test [1], the EC50 viability was over 1000 nM. The drug sensitivity score in test [6] was 6.4; in test [7], 2.2.
